# Assays:
# [1] = test system: experimental mouse model of autoimmune uveitis (IRBP-immunized mice); experiment: Experimental autoimmune uveitis, topical peptide treatment, clinical disease score and lymph node Th17/Treg transcription factor message; format: in vivo, C57BL/6 mice; details: for disease severity / ocular inflammation (clinical disease score): topical 10 microgram per mouse (5 microgram per eye) once per day, day 1 to 7, scored for 26 days, compared to control peptide
# Protocol: (§1) The expansion of Treg cells and the reduction of inflammatory effector cells was evaluated in an experimental mouse model of autoimmune uveitis to determine if the TSP-1 peptide reduced disease severity. […] The inflammatory response in the retina is monitored and scored regularly on the basis of severity by examining the fundus.
# For topical administration, 10 microgram per mouse (5 microgram per eye) was administered for the duration of 7 days. TSP peptide was administered topically once per day for 7 days post-immunization with IRBP-CFA. 1 microgram per microliter solution was used for the eye drops, i.e., 0.1% solution used as 5 microliter per eye resulting in total 10 microliter (10 microgram) per mouse. A liquid formulation was used in topical application as well as when peptide was administered intraperitoneally.
# C57BL/6 mice were immunized subcutaneously, on day 0, with 200 microgram IRBP in complete Freund's adjuvant per mouse followed by i.p. injection of Pertussis toxin (0.1 microgram). From day 1 to day 7 pos-immunization total 10 microgram of control or TSP-peptide was administered topically (5 micrograms/5 microliters per eye). Clinical disease score was recorded for the 26 days post-immunization.
# [2] = test system: CD4+ T cells derived from the spleen and lymph node; experiment: Treg and inflammatory effector cells in ova/CFA-immunized mice (flow cytometry); format: in vivo; details: 10 μg on day 1, 3 and 5 post-immunization, analysed day 7; compared to control peptide
# Protocol: To determine if such an expansion of Treg cells by TSP-peptide is possible in vivo, and whether it can reduce the typical IL-17 or IFNγ-producing inflammatory effectors, mice were immunized with an ovalbumin (ova) antigen in Complete Freund's Adjuvant (CFA). This is a commonly used experimental approach to generate antigen-specific inflammatory effectors. These ova-immunized mice were treated with either control or TSP-peptide (10 μg; SEQ ID NO:1) on day 1, 3 and 5 post-immunization. On day 7 post-immunization, the CD4+ T cells derived from the spleen and lymph node of these mice were analyzed by flow cytometry to determine the numbers of Foxp3+ Treg cells and the expression patterns of the inflammatory cytokines, IL-17 and […].
# Lymph nodes were harvested from immunized mice treated with either control or TSP-peptide 7 days post-immunization. Lymph node cells were cultured in the presence of PMA (10 ng/ml), ionomycin (200 ng/ml) and Brefeldin A for 20 hr at 37 degrees C. Cell surface CD4 and CD25 and intracellular Foxp3, IFNgamma and IL-17 were detected using fluorochrome-conjugated antibodies followed by flow cytometric analysis.
# [3] = test system: CD4+CD25− T cells; experiment: Treg induction from anti-CD3-activated CD4+CD25- T cells in vitro (flow cytometry, TGFbeta ELISA); format: cell-based
# Protocol: Purified CD4+CD25− T cells were stimulated with plate-bound anti-CD3 antibody for 48 hr at 37 degrees C. in the presence of 10 microM TSP-peptide or control peptide. Activated T cells were washed and subjected to 2 cycles of amplification, 48 hr each, in the presence of T cell growth factor IL-2 (50 U/ml). Proliferated T cells were then stained using fluorochrome-conjugated antibodies to label surface CD4 and CD25 and intracellular Foxp3. Stained cells were analyzed using a flow cytometer. Culture supernatants collected from cells after initial 48 hr culture were tested for the content of TGFbeta using an ELISA.
# [4] = test system: experimental mouse model of autoimmune uveitis (IRBP-immunized mice); experiment: Experimental autoimmune uveitis, i.p. peptide treatment, clinical disease score; format: in vivo, C57BL/6 mice; details: i.p. 10 microgram on day 1, 3 and 5 post-immunization; scored for 26 days; compared to control peptide
# Protocol: as §1
# C57BL/6 mice were immunized subcutaneously, on day 0, with 200 microgram IRBP in complete Freund's adjuvant per mouse followed by i.p. injection of Pertussis toxin (0.1 microgram). On day 1, 3 and 5 post-immunization mice received i.p. injection of 10 microgram of either control or TSP-peptide. Clinical disease score was recorded for the 26 days post-immunization.
# [5] = topical treatment, relative to control peptide
sequence,measurement,setting,value
"KRFYVVMWKK (listed as Homo sapiens) [4N1K, 4N1 flanked with 2 Lys residues]",disease severity / ocular inflammation (clinical disease score),[1],significantly reduced
same,disease severity / ocular inflammation (clinical disease score),[1]; listed as TSP-1 peptide,reduction of ocular inflammation
same,anti-inflammatory Treg cells in the lymph nodes (transcriptional factor message),[1]; [5],enhancement
same,pro-inflammatory Th17 cells in the lymph nodes (transcriptional factor message),[1]; [5],decline
same,numbers of Foxp3-expressing Treg cells,[2],increased numbers
same,numbers of IFN-γ-expressing CD4 effectors,[2],reduced numbers
same,numbers of IL-17-expressing CD4 effectors,[2],reduced numbers
same,number of cells expressing Foxp3 and CD25,"[3]; 10 microM peptide, 48 hr anti-CD3 activation, then 2 cycles IL-2, compared to control peptide (4NGG)",significantly increased
same,synthesis of immunosuppressive cytokine TGF-β1,"[3]; 10 microM peptide, culture supernatant after initial 48 hr, ELISA",increased
same,induction of Treg cells in vitro,[3]; in vitro,effectively induces Treg cells
same,disease severity (clinical disease score),[4],significantly reduced

# — patent US20140127269A1, “Anti-Inflammatory Peptide Derived From Thrombospondin-1 and Uses Thereof” (THE SCHEPENS EYE RESEARCH INSTITUTE, INC., priority 2012, published 2014)
